Experimental data from patent US10508168B2, “Thermoplastic polymer, method of preparing thermoplastic polymer, and thermoplastic polymer composition including thermoplastic polymer” (LG CHEM, LTD., priority 2015, dated 2019).

Assay: TGA test of thermal stability of emulsifier fatty acids
Type: physicochemical
Conditions: for Thermal stability (TGA comparison): result in words; for Temperature at which loss of 5% by weight (w/w) occurs / Temperature at which loss of 50% by weight (w/w) occurs: Table 2
Text: The present inventors first performed a process of selecting emulsifier candidates to substitute for a conventionally used fatty acid-based emulsifier so as to change the emulsifier among the aforementioned materials, and then selected an emulsifier having relatively high thermal stability through a boiling point test and a TGA test in accordance with the purpose of the present invention of reducing the amount of gas generated in high-temperature extrusion and injection-molding processes.
FIG. 2 illustrates TGA test comparison results of hydrogenated ricinoleic acid as a chain-type fatty acid including a functional group according to the present invention, stearic acid as saturated fatty acid not including a branch group or a functional group, and fatty acid (FAD acid: mixture of palmitic acid, oleic acid, and stearic acid) included in a conventionally used fatty acid-based emulsifier.

Loss amount at 270° C. (TGA, 270° C., Table 1)	Temperature at which loss of 10% by weight occurs (TGA, Table 1)	Thermal stability (TGA comparison)	Temperature at which loss of 5% by weight (w/w) occurs (TGA)	Temperature at which loss of 50% by weight (w/w) occurs (TGA)	Compound
9% by weight	273° ° C.	superior to fatty acid			CCCCCC[C@@H](O)C/C=C\CCCCCCCC(=O)O [Ricinoleic acid, ricinoleic acid]
			237 °C	289 °C	CCCCCCCCCCCCCCCCCC(=O)O [Stearic acid, stearic acid, reference compound]
		superior to stearic acid and fatty acid	263 °C	455 °C	CCCCCCC(O)CCCCCCCCCCC(=O)O (centres unmarked) [Hydrogenated ricinoleic acid, 12-hydroxy octadecanoic acid]
